These results are taken from patent US20220315554A1, “COMPOUNDS COMPRISING A […] LIGAND AND USE THEREOF” (priority 2019, published 2022).

Each structure is given as a SMILES string. pIC50: −log10 of the molar value. Numbered stars: 1 amine (or outer) side, 2 acyl side, 3 side chain; on linkers, the order of the positions; unused ones are H or OH. Bridge positions count the residues as written; N and C are the ends. Square brackets hold non-standard residues; d marks the D form. Peptide text beside a SMILES is read from it. * marks the point of attachment. X2 = O=C(O)CN1CCN(CC(=O)O)CCN(CC(=O)NCCCOCCOCCOCCCN*)CCN(CC(=O)O)CC1; DOTA = O=C(O)CN1CCN(CC(=O)O)CCN(CC(=O)*)CCN(CC(=O)O)CC1; mXylylene = c1cc(C[*:1])cc(C[*:2])c1; Suc = O=C(CCC(=O)[*:2])[*:1]; Nle = CCCC[C@H](N)C(=O)O

Experiment [1] concerns the target T1, FAP-expressing human WI-38 fibroblasts (Homo sapiens, UniProt Q12884).
T1 construct: FAP-expressing human WI-38 fibroblasts (ECACC) were cultured in EMEM; host or cells: WI-38 human fibroblasts
T1 sequence (Q12884 1-760): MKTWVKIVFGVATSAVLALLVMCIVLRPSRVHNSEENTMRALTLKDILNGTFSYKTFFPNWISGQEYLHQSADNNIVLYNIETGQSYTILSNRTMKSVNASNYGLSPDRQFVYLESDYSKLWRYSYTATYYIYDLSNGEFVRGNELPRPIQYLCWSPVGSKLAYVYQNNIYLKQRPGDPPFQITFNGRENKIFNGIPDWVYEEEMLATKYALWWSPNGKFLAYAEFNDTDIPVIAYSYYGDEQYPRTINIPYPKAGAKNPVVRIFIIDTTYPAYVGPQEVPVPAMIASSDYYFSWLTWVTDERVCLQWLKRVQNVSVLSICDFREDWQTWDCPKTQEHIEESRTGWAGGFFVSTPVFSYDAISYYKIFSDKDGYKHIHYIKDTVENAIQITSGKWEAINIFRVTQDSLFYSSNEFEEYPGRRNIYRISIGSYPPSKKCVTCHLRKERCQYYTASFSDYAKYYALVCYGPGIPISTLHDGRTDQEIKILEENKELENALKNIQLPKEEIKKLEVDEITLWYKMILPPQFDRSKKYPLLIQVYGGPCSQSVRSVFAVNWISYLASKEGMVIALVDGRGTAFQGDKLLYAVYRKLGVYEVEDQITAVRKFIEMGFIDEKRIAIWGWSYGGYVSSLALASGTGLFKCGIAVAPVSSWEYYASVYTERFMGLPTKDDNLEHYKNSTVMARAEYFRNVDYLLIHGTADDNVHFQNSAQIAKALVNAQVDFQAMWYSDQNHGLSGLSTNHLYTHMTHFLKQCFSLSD
The experiment is described as follows: Competitive FACS binding assay. The conditions noted are these: pIC50 Category (FACS), competition with 3 nM Cy5-labeled compound, WI-38 fibroblasts, 4° C., 1 hour. The procedure: Cells were analyzed in an Attune NxT flow cytometer. […]
In general terms: Flow cytometry measures light scatter and fluorescence of single cells or particles in a stream.

Experiment [2] has as its target T2, Human recombinant FAP (Homo sapiens, UniProt Q12884).
T2 sequence (Q12884 1-760): T1 sequence (Q12884 1-760)
The experiment is described as follows: FRET-based FAP protease activity assay. The class given is biochemical. Further details: purchased R&D systems 3715-SE. To be noted: pIC50 Category (Activity), recombinant human FAP, FRET substrate, 37° C.

By pIC50 is commonly meant −log10 of the IC50, conventionally taken in molar units. For the compound `CCCC[C@H](NC(=O)CN1CCN(CC(=O)O)CCN(CC(=O)O)CCN(CC(=O)O)CC1)C(=O)N[C@H]1CSCc2cccc(c2)CSC[C@@H](C(=O)N[C@@H](CC(=O)O)C(=O)N[C@@H](Cc2c[nH]cn2)C(=O)N[C@@H](Cc2ccccc2)C(=O)N[C@@H](CCCNC(=N)N)C(=O)N[C@@H](CC(=O)O)C(N)=O)NC(=O)[C@H](Cc2ccccc2)NC(=O)[C@H](CCC(=O)O)NC(=O)[C@H]([C@@H](C)O)NC(=O)[C@@H]2CCCN2C(=O)[C@@H]2CCCN2C1=O` [3BP-3088, DOTA-Nle-[Cys(3MeBn)-Pro-Pro-Thr-Glu-Phe-Cys]-Asp-His-Phe-Arg-Asp-NH2] ({DOTA}-[Nle]CPPTEFCDHFRD-NH2; linker 2-8 via mXylylene), the pIC50 in experiment [1] and in experiment [2] was 6.10 to 7.00 in each case.
Consider `CSCC[C@H](NC(=O)CN1CCN(CC(=O)O)CCN(CC(=O)O)CCN(CC(=O)O)CC1)C(=O)N[C@H]1CSCc2cccc(c2)CSC[C@@H](C(=O)N[C@@H](CC(=O)O)C(=O)N[C@@H](Cc2c[nH]cn2)C(=O)N[C@@H](Cc2ccccc2)C(=O)N[C@@H](CCCNC(=N)N)C(=O)N[C@@H](CC(=O)O)C(N)=O)NC(=O)[C@H](Cc2ccccc2)NC(=O)[C@H](CCC(=O)O)NC(=O)[C@H]([C@@H](C)O)NC(=O)[C@@H]2CCCN2C(=O)[C@@H]2CCCN2C1=O` [3BP-3170, DOTA-Met-[Cys(3MeBn)-Pro-Pro-Thr-Glu-Phe-Cys]-Asp-His-Phe-Arg-Asp-NH2] ({DOTA}-MCPPTEFCDHFRD-NH2; linker 2-8 via mXylylene), for which the pIC50 in experiment [1] and in experiment [2] was 6.10 to 7.00 throughout.
As to `C[C@@H](O)[C@@H]1NC(=O)[C@@H]2CCCN2C(=O)[C@@H]2CCCN2C(=O)[C@@H](NC(=O)[C@H](Cc2ccccc2)NC(=O)CCC(=O)NCCCOCCOCCOCCCNC(=O)CN2CCN(CC(=O)O)CCN(CC(=O)O)CCN(CC(=O)O)CC2)CSCc2cccc(c2)CSC[C@@H](C(=O)N[C@@H](CC(=O)O)C(=O)N[C@@H](Cc2c[nH]cn2)C(=O)N[C@@H](Cc2ccccc2)C(=O)N[C@@H](CCCNC(=N)N)C(=O)N[C@@H](CC(=O)O)C(N)=O)NC(=O)[C@H](Cc2ccccc2)NC(=O)[C@H](CCC(=O)O)NC1=O` [3BP-3171, DOTA-Ttds-Phe-[Cys(3MeBn)-Pro-Pro-Thr-Glu-Phe-Cys]-Asp-His-Phe-Arg-Asp-NH2] ({X2-Suc}-FCPPTEFCDHFRD-NH2; linker 2-8 via mXylylene), the pIC50 in experiment [1] and in experiment [2] was 7.10 to 8.00 each time.
As for `CC(C)C[C@H](NC(=O)CCC(=O)NCCCOCCOCCOCCOCCCNC(=O)CN1CCN(CC(=O)O)CCN(CC(=O)O)CCN(CC(=O)O)CC1)C(=O)N[C@H]1CSCc2cccc(c2)CSC[C@@H](C(=O)N[C@@H](CC(=O)O)C(=O)N[C@@H](Cc2c[nH]cn2)C(=O)N[C@@H](Cc2ccccc2)C(=O)N[C@@H](CCCNC(=N)N)C(=O)N[C@@H](CC(=O)O)C(N)=O)NC(=O)[C@H](Cc2ccccc2)NC(=O)[C@H](CCC(=O)O)NC(=O)[C@H]2NC(=O)[C@@H]3C(CCN3C(=O)[C@@H]3CCCN3C1=O)[C@H]2O` [3BP-3172, DOTA-Ttds-Leu-[Cys(3MeBn)-Pro-Pro-Thr-Glu-Phe-Cys]-Asp-His-Phe-Arg-Asp-NH2], the pIC50 in experiment [1] and in experiment [2] was more than 8.00 each time.
In the case of `C[C@@H](O)[C@@H]1NC(=O)[C@@H]2CCCN2C(=O)[C@@H]2CCCN2C(=O)[C@@H](NC(=O)[C@H](CCC(=O)O)NC(=O)CCC(=O)NCCCOCCOCCOCCCNC(=O)CN2CCN(CC(=O)O)CCN(CC(=O)O)CCN(CC(=O)O)CC2)CSCc2cccc(c2)CSC[C@@H](C(=O)N[C@@H](CC(=O)O)C(=O)N[C@@H](Cc2c[nH]cn2)C(=O)N[C@@H](Cc2ccccc2)C(=O)N[C@@H](CCCNC(=N)N)C(=O)N[C@@H](CC(=O)O)C(N)=O)NC(=O)[C@H](Cc2ccccc2)NC(=O)[C@H](CCC(=O)O)NC1=O` [3BP-3173, DOTA-Ttds-Glu-[Cys(3MeBn)-Pro-Pro-Thr-Glu-Phe-Cys]-Asp-His-Phe-Arg-Asp-NH2] ({X2-Suc}-ECPPTEFCDHFRD-NH2; linker 2-8 via mXylylene), the pIC50 in experiment [1] and in experiment [2] was 7.10 to 8.00 each time.
